The experiment has as its system HIV-1 (H9IIIB strain). As to the kind of experiment: Cell-based HIV infection assay using a reporter (Cell-Based), MT4-GFP cells. To be noted: Human immunodeficiency virus 1, MT4-GFP cells infected with HIV-1 H9IIIB; 50% normal human serum; mean of at least two independent experiments; read-out: Cell-based IP. How it is done: Cell-Based HIV Infection Assay Using a Reporter (“Cell-Based”):
MT4-GFP cells contain a stably integrated HIV long terminal repeat promoter directing the transcription of green fluorescent protein (GFP). When HIV infects the cell, GFP is produced and the cell becomes green. MT4-GFP cells (250,000 cells/ml) were bulk-infected with HIV-1 (H9IIIB strain) at low multiplicity of infection (MOI) in RPMI media, supplemented with 10% FBS for 24 hours. Cells were then washed once in RPMI plus 10% FBS and resuspended in RPMI plus 50% normal human serum (NHS). Test compounds were serial-diluted in DMSO using an ECHO liquid dispenser. A control well included a combination of three HIV drugs (an inhibitor of HIV protease, integrase strand transfer and a non-nucleoside reverse transcriptase inhibitor; triple drug). The infected MT4-GFP cells were added to a 384-well poly-D-lysine coated black plate with clear bottom in which the diluted test compounds were placed. The cells were seeded in the plate at 8,000 cells per well and the final DMSO concentration was 0.4%. Infected cells were quantified at both 24 and 48 hours post incubation using an Acumen eX3 plate reader. Viral reproductive ratio (R0) was determined using the number of infected cells at 48 hours divided by the number of infected cells at 24 hours. Percent viral growth inhibition was calculated by [1−(R−Rtripledrug)/(RDMSO−Rtripledrug)]*100. Compound potency IP or IC50 was determined with use of a 4-parameter dose response curve analysis.
With `COC(=O)N[C@H](C(=O)Nc1cncc(F)c1CC[C@@H]1CNCCN1S(C)(=O)=O)[C@@H](c1ccc(F)cc1)c1cc(F)cc(F)c1` [Example 49, methyl ((1S,2S)-1-(3,5-difluorophenyl)-3-((5-fluoro-4-(2-((R)-1-(methylsulfonyl)piperazin-2-yl)ethyl)pyridin-3-yl)amino)-1-(4-fluorophenyl)-3-oxopropan-2-yl)carbamate], the IC50 turned out to be 1700 nM.

On to `COC(=O)N[C@H](C(=O)Nc1cncc(F)c1CC[C@H]1CNCCN1S(=O)(=O)C1CC1)[C@@H](c1ccc(F)cc1)c1cc(F)cc(F)c1` [Example 50, (βS)-N-(4-{2-[(2S)-1-(cyclopropylsulfonyl)piperazin-2-yl]ethyl}-5-fluoropyridin-3-yl)-3,5-difluoro-β-(4-fluorophenyl)-Nα-(methoxycarbonyl)-L-phenylalaninamide], for which the IC50 was determined as 21 nM.

As for `COC(=O)N[C@H](C(=O)Nc1cccc(F)c1CC[C@H]1CNCCN1S(=O)(=O)c1ccccc1)C(c1cc(F)cc(F)c1)c1cc(F)cc(F)c1` [Example 51, β-(3,5-difluorophenyl)-3,5-difluoro-N-(3-fluoro-2-{2-[(2S)-1-(phenylsulfonyl)piperazin-2yl]ethyl}phenyl)-Nα-(methoxycarbonyl)-L-phenylalaninamide], the IC50 was found to be 11 nM.

Turning to `COC(=O)N[C@H](C(=O)Nc1cccc(F)c1CC[C@H]1CNCCN1S(=O)(=O)c1ccccc1)[C@@H](c1ccc(Cl)cc1)c1cccc(F)c1` [Example 52, (βS)-4-chloro-β-(3-fluorophenyl)-N-(3-fluoro-2-{2-[(2S)-1-(phenylsulfonyl)piperazin-2-yl]ethyl}phenyl)-Nα-(methoxycarbonyl)-L-phenylalaninamide], the IC50 worked out at 9.2 nM.

As to `COC(=O)N[C@H](C(=O)Nc1cncc(F)c1CC[C@H]1CNCCN1S(=O)(=O)c1ccccc1)[C@@H](c1ccc(Cl)cc1)c1cccc(F)c1` [Example 53, (βS)-4-chloro-β-(3-fluorophenyl)-N-(5-fluoro-4-{2-[(2S)-1-(phenylsulfonyl)piperazin-2-yl]ethyl}pyridin-3-yl)-Nα-(methoxycarbonyl)-L-phenylalaninamide], the IC50 turned out to be 6.5 nM.

Consider `COC(=O)N[C@H](C(=O)Nc1cncc(F)c1CC[C@H]1CNCCN1S(=O)(=O)c1ccccc1)C(c1cccc(F)c1)c1cccc(F)c1` [Example 54, 3-fluoro-β-(3-fluorophenyl)-N-(5-fluoro-4-{2-[(2S)-1-(phenylsulfonyl)piperazin-2-yl]ethyl}pyridin-3-yl)-Nα-(methoxycarbonyl)-L-phenylalaninamide], for which the IC50 came out at 9.8 nM.

Turning to `COC(=O)N[C@H](C(=O)Nc1cccc(F)c1CC[C@H]1CNCCN1S(=O)(=O)c1ccccc1)[C@@H](c1ccc(Cl)cc1)c1cncc(F)c1` [Example 55, (βS)-4-chloro-N-(3-fluoro-2-{2-[(2S)-1-(phenylsulfonyl)piperazin-2-yl]ethyl}phenyl)-β-(5-fluoropyridin-3-yl)-Nα-(methoxycarbonyl)-L-phenylalaninamide], the IC50 turned out to be 9 nM.

As for `COC(=O)N[C@H](C(=O)Nc1cncc(F)c1CC[C@H]1CNCCN1S(=O)(=O)c1ccccc1)[C@@H](c1ccc(Cl)cc1)c1cccc(OC(F)(F)F)c1` [Example 56, (βS)-4-chloro-N-(5-fluoro-4-{2-[(2S)-1-(phenylsulfonyl)piperazin-2-yl]ethyl}pyridin-3-yl)-Nα-(methoxycarbonyl)-β-[3-(trifluoromethoxy)phenyl]-L-phenylalaninamide], the IC50 is 13 nM.

On to `COC(=O)N[C@H](C(=O)Nc1cncc(F)c1CC[C@H]1CNCCN1S(=O)(=O)c1ccccc1)[C@@H](c1ccc(Cl)cc1)c1cc(F)cc(F)c1` [Example 57, (βS)-4-chloro-β-(3,5-difluorophenyl)-N-(5-fluoro-4-{2-[(2S)-1-(phenylsulfonyl)piperazin-2-yl]ethyl}pyridin-3-yl)-Nα-(methoxycarbonyl)-L-phenylalaninamide], for which the IC50 worked out at 7.7 nM.

For the origin of these results see patent publication US9840478B2 (MERCK SHARP & DOHME CORP., priority 2013, dated 2017).
